# Read-outs that look alike come from different tables or passages of the source.
# How the values were obtained:
# GST-PLK1 = molecular target: T1, GST-PLK1 (Homo sapiens, UniProt P53350); assay: GST-Plk kinase activity kinetic assay (phosphorylation of GST-cdc25C); format: biochemical; settings: for reduction of GST-PLK1 activity: preincubation 0-45 minutes; for Ki: 10-25 μM ATP, 2, 4, 6 μM SCY
# T1 construct: made in house
# Method: GST-PLK1, and GST-cdc25C were synthesized as described in Roshak et al. (2000), which is herein incorporated by reference. GST-PLK1 and GST-cdc25C were purified to 20% and 60% purity as determined by SDS-PAGE analysis and Coomassie Blue staining. The remaining impurities were determined to be free GST.
# Kinase reactions comprised 350 nM GST-cdc25C, 0.5 μCi [^33P]-γATP (NEN, Cambridge, Mass.), 10 μM unlabelled ATP (Sigma, St. Louis, Mo.), 20 nM GST-PLK1 in kinase reaction buffer comprising 20 mM HEPES (pH 7.4), 50 mM KCl, 10 mM MgCl2, 1 mM EGTA, 0.5 mM DTT. Enzyme and substrates were diluted individually in kinase buffer and the PLK1 solution was pre-activated by incubating at 37° C. for 1 hour prior to its addition to the assay as described in Roshak et al. (2000).
# 50 μl reactions were conducted in 96 well polypropylene plates. First, 1 nM to 10 μM SCY dissolved in 100% DMSO was added, followed by the addition of enzyme and substrate to give a final concentration of 4% DMSO. The reactions were initiated by the addition of ATP. The reactions progressed for 60 minutes at 37° C., and were then stopped with 25 mM EDTA and 1 mM unlabeled ATP. The samples were transferred to 96 well 0.45 μm millipore filtration plates (Millipore, Bedford, Mass.), the proteins were precipitated with a 10% TCA, 5% sodium pyrophosphate solution (TCA-NaPP), and the plates were filtered using a Millipore microplate filtration unit (Millipore, Bedford, Mass.). The plates were washed twice with the TCA-NaPP solution, twice with 75 mM phosphoric acid, and twice with PBS. After drying at room temperature, scintillation fluid was added to the plate, and [^33P]-γATP incorporation was measured on a Packard Top-Count.
# Analysis by autoradiography was performed as described in Roshak et al. (2000). Briefly, GST-PLK1 (20 nM/assay), […], 1 μCi [^32P]-γATP, and 350 nM GST-cdc25C were incubated in microcentrifuge tubes (50 μl/assay) for 60 minutes at 37° C. in the presence of 1 to 10 μM SCY and 10 μM hymenialdisine. The reactions were terminated with 25 mM EDTA, separated by SDS-PAGE and GST-cdc25C phosphorylation was visualized using Imagequest (Molecular Dynamics, Sunnyvale, Calif.). 10 μM hymenialdisine served as a positive control for each assay described above.
# To determine whether SCY was acting as and ATP analogue, ATP competition assays were conducted as described above in the presence of increasing concentrations, 10, 15, 20, and 25 μM, of unlabeled ATP and three concentrations of SCY, 2, 4, and 6 μM SCY. The results were plotted using the Grafit statistical analysis program.
# To ascertain if inhibition of GST-PLK1, activity by SCY is time dependent, 3 μM and 10 μM SCY were pre-incubated with both enzyme and substrate for 0, 15, 30, and 45 minutes at room temperature. At the end of the pre-incubation period, ATP was added to initiate the activity assay. […] GST-PLK1, activity was reduced by about 58% and about 93% after preincubation with 3 μM and 10 μM SCY, respectively, which is consistent with the levels shown in FIG. 3.
# [1] = test system: RTX-induced mouse ear edema; assay: Resiniferatoxin (RTX)-induced mouse ear edema assay; format: in vivo; settings: systemic
# Method: Various dilutions of test compounds were topically applied in acetone to the inside and outside surfaces of the left ears of mice in a solution comprising 0.1 μg RTX or 250 μg CAP per ear. A control, acetone, was applied to all right ears. After a 30 minute incubation, the mice were sacrificed, the ears removed, and bores taken and weighed.
# For systemic studies, the test compounds were administered by intraperitoneal injection in a vehicle comprising 20% propylene glycol, 80% saline and 3 drops TWEEN-20 30 minutes or 1 hour prior to topical application of RTX or CAP. Control animals were injected with vehicle only. 0.1 μg RTX or 250 μg CAP was applied to the left ears and acetone was applied to the right ears. After 30 minutes of incubation, the mice were scarified, ears removed and bores taken and weighed.
# Edema was measured by subtracting the weight of the right ear (control) from the weight of the left ear. The results were recorded as % decrease (inhibition) or % increase (potentiation) in edema relative to the control group edema.
# [2] = test system: PMA-induced cell proliferation in mouse ear epidermis; assay: Mouse ear cell proliferation assay (IUdR incorporation, PCNA histology); format: in vivo
# Method: To determine the efficacy of scytonemin as an anti-proliferative agent in vivo, the following assay was conducted. On day one, test compounds were delivered in 10 μl 20% DMSO, 80% acetone and applied to both the inner and outer pinnae of left ears (20 μl total) of male, Swiss Webster mice (Taconic Farms, Germantown, N.Y.). The right ears received only vehicle. One hour post test compound application, 4 μg/ear PMA (Sigma, St. Louis, Mo.) in 10 μl acetone was applied to the inner pinnae of each left ear and 10 μl acetone was applied to each right ear. Four hours post test compound application, the each test compound was again applied in the same manner. On day two, the test compounds were applied twice with a four-hour interval between each application. On day three, the test compounds and PMA were applied as they had been on day one.
# One hour after the final test compound applications, each mouse was injected with 0.6 ml of a solution containing the thymidine analogue, 5-iodo-I^125-2′-deoxyuridine (IUdR) (2 μCi-I^125/mouse) and, to inhibit the endogenous deoxythymidilic acid synthetase, fluorodeoxyuridine (FUdR) ([…]). This IUdR/FUdR solution was made up in RPMI 1640 media. Eighteen hours post injection, the mice were euthanized via CO2 inhalation, the ears were excised and soaked individually in a 70% EtOH solution overnight.
# IUdR incorporation was then measured using a Beckman Gamma counter, Model 5500B. […] Therefore, scytoneman compounds may be used to reduce, prevent, inhibit, modulate, or attenuate cell proliferation.
# Additionally, immunostaining with Proliferating Cell Nuclear Antigen (PCNA) was used as a proliferation marker to identify proliferating cells. PCNA is a cofactor for DNAt […]. Expression levels of PCNA fluctuate over the cell cycle. […] Low expression levels of PCNA indicate non-cycling cells.
# Histological analysis was used to determine the effect of scytonemin on the thickness of the epidermal layer of skin, the mitotic index of cells in the epidermal layer, the number of cells in the epidermis, and the amount of immune cell infiltration. PCNA antibodies were used to detect the presence of PCNA in cells and a peroxidase-Ni/DAB development system was used to stain PCNA-positive cells black and hematoxlin was used as a nuclear blue counterstain using conventional methods.
# T1 sequence (P53350 whole entry): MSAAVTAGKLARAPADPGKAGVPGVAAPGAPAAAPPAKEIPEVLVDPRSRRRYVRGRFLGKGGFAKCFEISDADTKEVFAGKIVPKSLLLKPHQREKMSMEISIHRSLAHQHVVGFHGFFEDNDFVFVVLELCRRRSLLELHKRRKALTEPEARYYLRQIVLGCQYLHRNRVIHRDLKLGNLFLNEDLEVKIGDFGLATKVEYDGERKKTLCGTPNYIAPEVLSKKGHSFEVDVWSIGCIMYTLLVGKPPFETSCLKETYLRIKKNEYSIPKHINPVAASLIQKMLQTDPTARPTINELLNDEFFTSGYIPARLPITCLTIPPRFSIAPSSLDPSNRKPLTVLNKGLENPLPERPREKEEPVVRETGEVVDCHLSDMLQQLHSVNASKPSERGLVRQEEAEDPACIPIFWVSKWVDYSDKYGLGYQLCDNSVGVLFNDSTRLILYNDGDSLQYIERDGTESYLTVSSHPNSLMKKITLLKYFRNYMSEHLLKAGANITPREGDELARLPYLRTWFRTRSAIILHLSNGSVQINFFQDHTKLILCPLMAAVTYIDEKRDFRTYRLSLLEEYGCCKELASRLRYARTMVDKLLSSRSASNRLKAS
substance,measurement,setting,value
scytonemin,reduction of GST-PLK1 activity,GST-PLK1; 3 μM SCY,about 58%
same,time dependence of GST-PLK1 inhibition,"GST-PLK1; 3 μM and 10 μM, preincubation 0, 15, 30, 45 minutes",not time dependent
same,reduction of GST-PLK1 activity,GST-PLK1; 10 μM SCY,about 93%
same,IC50,"GST-PLK1; 10 μM unlabelled ATP, 60 minutes at 37° C., IC50±S.E.M., read-out: IC50 for inhibition of GST-PLK1 phosphorylation of GST-cdc25C",1950 ± 70 nM
same,Ki,"GST-PLK1; ATP competition, read-out: Ki when fitted as an uncompetitive inhibitor",2300 ± 1900 nM
same,Ki,"GST-PLK1; ATP competition, read-out: Ki when fitting the data as a competitive inhibitor",3000 ± 1900 nM
same,mechanism of inhibition of GST-PLK1,"GST-PLK1; ATP competition, double-reciprocal plot",mixed inhibitor
same,GST-cdc25C phosphorylation by GST-PLK1 (phosphorimage),GST-PLK1; in the presence of 10 μM SCY,virtually no phosphorylated GST-cdc25C detectable
same,inhibition of topical RTX-induced mouse ear edema,[1]; 25 mg/kg,15%
same,inhibition of topical RTX-induced mouse ear edema,[1]; 50 mg/kg,18%
same,inhibition of topical RTX-induced mouse ear edema,[1]; 150 mg/kg,47%
same,cells actively proliferating (PCNA staining),"[2]; +PMA 4 μg/ear, scytonemin 1 mg/ear, dexamethasone 0.15 mg/ear",about 60%
same,mitotic index of epidermal cells,"[2]; PMA-treated mouse ears, 5% SCY",reduces the mitotic index
same,cell proliferation in vivo (IUdR incorporation),"[2]; topical, PMA 4 μg/ear",effectively reduced or prevented cell proliferation in vivo

# Source: US6495588B2, “Scytonemin and methods of using thereof” (The Regents of the University of California, priority 2000, dated 2002)
